In patent US12590091B2, “1H-pyrrolo[3,2-C]pyridine and 1H-pyrrolo[2,3-C]pyridine derivatives as TLR9 inhibitors for the treatment of fibrosis” (BRISTOL-MYERS SQUIBB COMPANY, priority 2020, dated 2026):

What was measured:
human TLR9 = molecular target: T1, human TLR9 (Homo sapiens, UniProt Q9NR96); experiment: TLR9 inhibition reporter assay (HEK-Blue cells, SEAP reporter); assay type: cell-based; settings: HEK-Blue cells overexpressing human TLR9, stimulated with ODN2006 5 nM, 22 hour incubation
T1 construct: host or cells: HEK-Blue cells
T1 sequence (Q9NR96 26-1032): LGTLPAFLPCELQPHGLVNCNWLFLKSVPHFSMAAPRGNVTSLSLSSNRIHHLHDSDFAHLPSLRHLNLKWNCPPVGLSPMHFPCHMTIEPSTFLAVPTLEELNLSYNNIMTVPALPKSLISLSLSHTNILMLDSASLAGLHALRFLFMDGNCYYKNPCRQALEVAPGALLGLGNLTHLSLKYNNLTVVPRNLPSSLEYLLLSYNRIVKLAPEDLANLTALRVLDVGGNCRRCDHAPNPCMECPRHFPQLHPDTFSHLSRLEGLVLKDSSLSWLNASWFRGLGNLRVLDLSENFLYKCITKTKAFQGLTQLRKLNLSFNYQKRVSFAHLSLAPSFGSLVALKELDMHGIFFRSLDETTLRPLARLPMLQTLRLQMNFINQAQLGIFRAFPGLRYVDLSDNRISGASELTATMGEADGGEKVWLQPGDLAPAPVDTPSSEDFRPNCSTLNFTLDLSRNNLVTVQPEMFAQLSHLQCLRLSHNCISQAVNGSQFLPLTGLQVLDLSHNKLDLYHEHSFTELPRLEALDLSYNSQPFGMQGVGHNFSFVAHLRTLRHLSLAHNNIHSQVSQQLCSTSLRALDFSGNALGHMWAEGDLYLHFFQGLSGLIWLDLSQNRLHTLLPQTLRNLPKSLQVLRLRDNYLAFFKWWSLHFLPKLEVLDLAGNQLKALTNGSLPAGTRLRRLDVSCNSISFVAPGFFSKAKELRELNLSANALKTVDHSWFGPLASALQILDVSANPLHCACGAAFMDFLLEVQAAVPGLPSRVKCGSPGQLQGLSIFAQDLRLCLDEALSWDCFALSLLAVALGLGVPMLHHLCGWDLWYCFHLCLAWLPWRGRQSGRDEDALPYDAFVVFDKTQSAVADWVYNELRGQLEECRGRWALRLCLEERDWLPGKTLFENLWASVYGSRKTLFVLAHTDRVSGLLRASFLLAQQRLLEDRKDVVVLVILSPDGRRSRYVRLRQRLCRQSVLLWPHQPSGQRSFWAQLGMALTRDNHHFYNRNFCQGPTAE
In short: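 Compound dose-response (0.05 nM–50 μM final) on agonist-stimulated human TLR9 HEK-Blue cells, 25,000/well, incubated 22 h at 37 °C, 5% CO2. Readout was secreted alkaline phosphatase under an IFN-β minimal promoter with NF-κB/AP-1 sites; inhibition expressed relative to DMSO and reference-inhibitor controls.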

human TLR8 = molecular target: T2, human TLR8 (Homo sapiens, UniProt Q9NR97); experiment: TLR8 inhibition reporter assay (HEK-Blue cells, SEAP reporter); assay type: cell-based; settings: HEK-Blue cells overexpressing human TLR8, stimulated with R848 15.9 μM, 22 hour incubation
T2 construct: host or cells: HEK-Blue cells
T2 sequence (Q9NR97 27-1041): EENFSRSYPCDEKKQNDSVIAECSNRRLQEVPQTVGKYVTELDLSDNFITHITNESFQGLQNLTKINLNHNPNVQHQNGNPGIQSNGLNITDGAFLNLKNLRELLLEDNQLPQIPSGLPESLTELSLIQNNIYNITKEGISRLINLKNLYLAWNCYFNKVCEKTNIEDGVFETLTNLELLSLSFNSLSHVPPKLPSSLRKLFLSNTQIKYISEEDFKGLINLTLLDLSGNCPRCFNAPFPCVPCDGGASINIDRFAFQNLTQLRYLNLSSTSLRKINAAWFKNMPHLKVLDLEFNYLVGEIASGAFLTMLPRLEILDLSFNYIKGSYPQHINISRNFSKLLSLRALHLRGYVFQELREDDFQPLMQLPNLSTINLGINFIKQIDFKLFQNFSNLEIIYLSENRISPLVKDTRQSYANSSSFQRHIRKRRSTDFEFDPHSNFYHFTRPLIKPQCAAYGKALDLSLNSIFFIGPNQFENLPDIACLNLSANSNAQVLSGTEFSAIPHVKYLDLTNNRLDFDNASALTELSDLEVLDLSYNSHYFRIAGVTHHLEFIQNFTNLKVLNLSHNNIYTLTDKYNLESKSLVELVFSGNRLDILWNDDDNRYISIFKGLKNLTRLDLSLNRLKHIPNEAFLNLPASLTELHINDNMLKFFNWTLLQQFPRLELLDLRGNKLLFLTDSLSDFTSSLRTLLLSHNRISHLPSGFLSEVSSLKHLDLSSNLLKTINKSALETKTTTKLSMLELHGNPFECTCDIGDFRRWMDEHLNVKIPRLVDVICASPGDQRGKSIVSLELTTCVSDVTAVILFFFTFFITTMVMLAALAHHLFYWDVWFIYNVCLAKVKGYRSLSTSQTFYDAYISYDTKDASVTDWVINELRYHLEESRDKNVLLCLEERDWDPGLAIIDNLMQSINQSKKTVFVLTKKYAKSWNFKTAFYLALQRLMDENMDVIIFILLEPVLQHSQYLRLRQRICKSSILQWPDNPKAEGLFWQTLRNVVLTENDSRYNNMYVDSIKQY
In short: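 Dose–response from 0.05 nM to 50 μM was run in HEK-Blue human TLR7, TLR8 and TLR9 reporter cells. After 30 min at room temperature with compound, ligand was added (TLR7 gardiquimod 7.5 μM; TLR8 R848 15.9 μM; TLR9 ODN2006 5 nM) and SEAP measured next day, at 22 h.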

IC50 (human TLR9) [nM] | IC50 (human TLR8) [nM] | SMILES
188 | 1100 | Cc1nc(-c2ccc(C3(O)CCN(C(C)C)CC3)cc2F)cc2c1cc(-c1ccc(S(C)(=O)=O)cc1)n2C [Example 109, 4-(4-(1,4-dimethyl-2-(4-(methylsulfonyl)phenyl)-1H-pyrrolo[3,2-c]pyridin-6-yl)-3-fluorophenyl)-1-isopropylpiperidin-4-ol]
47 | > 50000 | Cc1nc(C2CCN(C3CC4CCC(C3)N4CC(C)C)CC2)cc2c1cc(-c1ccc(S(C)(=O)=O)cc1)n2C (centres unmarked) [Example 114, 6-(1-(8-isobutyl-8-azabicyclo[3.2.1]octan-3-yl)piperidin-4-yl)-1,4-dimethyl-2-(4-(methylsulfonyl)phenyl)-1H-pyrrolo[3,2-c]pyridine]
615 | 2100 | Cc1nc(-c2ccc(CN3CCN(CCC(C)(C)O)CC3)cc2)cc2c1c(F)c(-c1ccc(S(C)(=O)=O)cc1)n2C [Example 115, 4-(4-(4-(3-fluoro-1,4-dimethyl-2-(4-(methylsulfonyl)phenyl)-1H-pyrrolo[3,2-c]pyridin-6-yl)benzyl)piperazin-1-yl)-2-methylbutan-2-ol]
59 | 19000 | Cc1nc(-c2ccc(CN3CCN(CCC(C)(C)O)CC3)cc2)cc2c1cc(-c1ccc(S(C)(=O)=O)cc1)n2C1CC1 [Example 116, 4-[4-[[4-[1-cyclopropyl-4-methyl-2-(4-methylsulfonylphenyl)pyrrolo[3,2-c]pyridin-6-yl]phenyl]methyl]piperazin-1-yl]-2-methyl-butan-2-ol]
57 | 8100 | CC(C)N1CCN(c2ccc(-c3cc4c(cc(-c5ccc(S(C)(=O)=O)cc5)n4C)c(C(C)(C)O)n3)cc2)CC1 [Example 118, 2-[6-[4-(4-isopropylpiperazin-1-yl)phenyl]-1-methyl-2-(4-methylsulfonylphenyl)pyrrolo[3,2-c]pyridin-4-yl]propan-2-ol]
129 | > 50000 | CC(C)(O)CN1C2CCC1CN(Cc1ccc(-c3cc4c(cn3)cc(-c3ccc(S(C)(=O)=O)cc3)n4C3CC3)cc1)C2 [Example 121, 1-[3-[[4-[1-cyclopropyl-2-(4-methylsulfonylphenyl)pyrrolo[3,2-c]pyridin-6-yl]phenyl]methyl]-3,8-diazabicyclo[3.2.1]octan-8-yl]-2-methyl-propan-2-ol]
103 | 3700 | Cc1nc(-c2ccc(CN3CCN(CC(C)(C)O)CC3)cc2)cc2c1c(F)c(-c1ccc(S(C)(=O)=O)cc1)n2C [Example 122, 1-(4-(4-(3-fluoro-1,4-dimethyl-2-(4-(methylsulfonyl)phenyl)-1H-pyrrolo[3,2-c]pyridin-6-yl)benzyl)piperazin-1-yl)-2-methylpropan-2-ol]
85 | 17600 | Cc1nc(-c2ccc(CN3CCN(CC(C)(C)O)CC3)cc2)cc2c1cc(-c1ccc(S(C)(=O)=O)cc1)n2C1CC1 [Example 123, 1-(4-(4-(1-cyclopropyl-4-methyl-2-(4-(methylsulfonyl)phenyl)-1H-pyrrolo[3,2-c]pyridin-6-yl)benzyl)piperazin-1-yl)-2-methylpropan-2-ol]
451 | > 50000 | Cc1nc(-c2ccc(CN3CCN(CC(C)(C)O)CC3)cc2)cc2c1cc(-c1ccc(S(C)(=O)=O)cc1)n2C(F)F [Example 124, 1-(4-(4-(1-(difluoromethyl)-4-methyl-2-(4-(methylsulfonyl)phenyl)-1H-pyrrolo[3,2-c]pyridin-6-yl)benzyl)piperazin-1-yl)-2-methylpropan-2-ol]
133 | 11300 | CC(C)N1CCN(Cc2ccc(-c3cc4c(cc(-c5ccc(S(C)(=O)=O)cc5)n4C)c(C(C)(C)O)n3)cc2)CC1 [Example 125, 2-(6-(4-((4-isopropylpiperazin-1-yl)methyl)phenyl)-1-methyl-2-(4-(methylsulfonyl)phenyl)-1H-pyrrolo[3,2-c]pyridin-4-yl)propan-2-ol]
115 | 7900 | CC(C)(O)CN1CCN(Cc2ccc(-c3cc4c(cn3)cc(-c3ccc(S(C)(=O)=O)cc3)n4C3CC3)cc2)CC1 [Example 128, 1-(4-(4-(1-cyclopropyl-2-(4-(methylsulfonyl)phenyl)-1H-pyrrolo[3,2-c]pyridin-6-yl)benzyl)piperazin-1-yl)-2-methylpropan-2-ol]
118 | 5600 | CC(C)(O)CCN1CCN(Cc2ccc(-c3cc4c(cn3)cc(-c3ccc(S(C)(=O)=O)cc3)n4C3CC3)cc2)CC1 [Example 129, 4-(4-(4-(1-cyclopropyl-2-(4-(methylsulfonyl)phenyl)-1H-pyrrolo[3,2-c]pyridin-6-yl)benzyl)piperazin-1-yl)-2-methylbutan-2-ol]
92 | 6400 | CC(C)(O)CN1CC2CCC(C1)N2Cc1ccc(-c2cc3c(cn2)cc(-c2ccc(S(C)(=O)=O)cc2)n3C2CC2)cc1 [Example 130, 1-(8-(4-(1-cyclopropyl-2-(4-(methylsulfonyl)phenyl)-1H-pyrrolo[3,2-c]pyridin-6-yl)benzyl)-3,8-diazabicyclo[3.2.1]octan-3-yl)-2-methylpropan-2-ol]
